Reference: patent US20240181005A1, “COMPOSITIONS, SYSTEMS, AND METHODS FOR GENERATING GENE-EDITED CELLS” (CellScript, LLC, priority 2020, published 2024)

Assays:
HSPCs [1] = details: HSPCs from patients with CGD, SCD, SCID-X1; cited from earlier work
HSPCs [2] = test: Innate immune, transcriptional and toxicity response of HSPCs to the mRNAs during gene editing
[3] = test system: NSGS immunodeficient mice; test: Transplantation of gene-edited XMEN CD34+ HSPCs into NSGS mice; format: in vivo, mouse; details: for post-transplant TI: ddPCR, human CD45+ cells from bone marrow, week 16
Excerpt: (A) Human engraftment measured by the presence of human CD45^+ cells by flow cytometry at week 16 in the peripheral blood, bone marrow, spleen and thymus of NSGS mice transplanted with HD (n=5 mice), untreated (n=12) or gene-edited XMEN CD34^+ HSCs (n=1 (−i53), n=8 (+i53), n=18 (+i53^+ GSE-CS56)). The dotted line indicates the threshold for engraftment at 0.2% hCD45^+ cells in the bone marrow. (B) Percentage of human engraftment (hCD45^+) measured after injection of XMEN HSPCs gene edited with increasing Multiplicity of Infection (MOIs) of AAV, in presence of i53 alone or i53 and GSE-CS56. (C) Immunophenotypic analysis of bone marrow at 16 weeks post-transplant by flow cytometry showing the percentages of CD34^+ cells, myeloid (CD33^+), lymphoid B (CD19^+) and T (CD3^+) after gating on the hCD45^+ population. (D and E) Restoration of NKG2D expression in NK cells from the spleen (D) and CD8^+ T cells from the peripheral blood, spleen and thymus (E) at week 16 post-transplant. For all the graphs, data are shown as mean±SD. (F and G) Targeted insertion quantified by ddPCR in human CD45^+ cells isolated from the bone marrow after gene editing with i53 (orange bar) or with i53 and GSE-CS56 (green bar) (F); or in the lymphoid T (CD3), myeloid (CD33/CD14) and lymphoid B (CD19) cells sorted from the spleen (G).
The use of triple transgenic immunodeficient mice NOD.Cg-Prkd^scid Il2rg^tm1Wjl Tg (NSG-SGM3 or NSGS) expressing human IL3, GM-CSF and SCF cytokines (30) (Stock No: 013062; The Jackson Laboratory) for transplantation studies was approved by NIAID Institutional Animal Care and Use Committee under the animal use protocol LCIM-1E. The conduct of these studies conforms to AAALAC International guidelines and all US federal regulations required for protection of research animals. Newborn mice (0-4 days old) were irradiated at 100 cGy and immediately intrahepatically injected (courtesy of Mara Pavel-Dinu) with 1-1.5×10^6 viable CD34^+ cells per mouse. Peripheral blood from tail vein was analyzed at weeks 12 and 16 after transplantation. At 16 weeks, mice were sacrificed, and bone marrow, spleen and thymus were harvested for analysis of engraftment, sorting or gDNA extraction as indicated. […]
(§1) Targeted insertion (TI) of MAGT1 cDNA was quantified by digital droplet PCR (ddPCR) using one primer located upstream of the LHA (5′-[…]−3′, SEQ ID NO:42) the second primer (5′-[…]-3′, SEQ ID NO:43) inside the cDNA and a probe (5′-[…]-3′, SEQ ID NO:44).

XMEN CD34^+ HSPCs [4] = test: Viability of gene-edited CD34+ HSPCs by trypan blue exclusion; format: cell-based, human; details: day 2 post-EP
Excerpt: (§2) (A) Location of the 10 candidate sgRNAs targeting MAGT1 gene transcription start site (TSS). Each sgRNA (sg) is represented as a 20-bp sequence (light grey or green) associated with the 3-bp PAM sequence (darker color). (B) Evaluation of the percentage of cutting activity by TIDE assay after gDNA extraction from untreated versus Cas9/sgRNA treated HD CD34+ cells at 2-5 days post electroporation, sequencing of Exon 1 and comparison of the sequences using TIDE software (n=1-5 independent experiments). (C) Design of the rAAV6-MAGT1 donor. (D) Molecular analysis showing the percentage of targeted insertion in gene-edited XMEN CD34+ cells using gene editing enhancers as described. gDNA was extracted at 48 h-72 h post-EP and insertion of the MAGT1 cDNA donor was quantified by ddPCR (n=3-11 independent experiments). (E) Viability determined by blue trypan exclusion in untreated Naive and AAV-MAGT1-treated XMEN HSPCs at day 2 post-EP (n=1-7 independent experiments). (F) Representative analysis of the phenotype of CD34+ cells at day 2 post-EP. For all the graphs, data are shown as mean±standard deviation (SD); ANOVA one-way test and Tukey's post hoc multiple comparisons test, *p<0.05, *p<0.01, ***p<0.001, ****p<0.0001.
Cryopreserved CD34^+ HSPCs were thawed (day 0) and cultured in StemSpan SFEM II medium (STEMCELL™ Technologies) supplemented with 100 ng/mL stem cell factor (SCF), Flt3 ligand, thrombopoietin (Peprotech), 0.75 μM of StemRegenin-1 (STEMCELL™ Technologies) and 35 nM of UM171 (STEMCELL™ Technologies) for 2 days (37). […] At 48 h post-EP, the cells were harvested and counted by hemocytometer with trypan blue to determine viability before their use for molecular analysis, phenotypic analysis by flow cytometry, CFU assay, T or NK cell differentiation or cryopreservation for transplant studies.

[5] = test system: NK cells (CD3-CD56^+) differentiated from XMEN CD34^+ HSPCs; test: In vitro NK cell differentiation from gene-edited CD34+ cells: NKG2D expression and TI; format: cell-based, human
Excerpt: (B) Dot plot showing the gating for NK cells (CD3-CD56+) and NKG2D expression after 35 days of in vitro NK cell differentiation from CD34+ cells; histogram on the right showing the percentage of CD34-derived NK cells in each condition (n=2-8 independent experiments). (C) NKG2D expression and (D) targeted integration in NK cells at day 35 of in vitro differentiation (n=2-8 independent experiments). (E) Cytotoxic activity of CD34+-differentiated NK cells against K562 cells at an E:T ratio of 2:1 (n=1-7 independent experiments). For all the graphs, data are shown as mean±SD; *p<0.05, *p<0.01, ***p<0.001, ****p<0.0001. (F) Correlation between the NKG2D expression (%) and the killing activity (%) in NK cells at day 35 was calculated using Spearman's correlation coefficient and two-tailed p-value (n=21 samples).
CD34^+ HSPCs were differentiated into NK cells in vitro using a protocol adapted from (47). 200,000 CD34^+ cells were resuspended in IMDM supplemented with 20% FBS and 50 μM BME containing 5 ng/mL rhIL-3 (first week only), 10 ng/mL IL-15, 20 ng/mL IL-7, 20 ng/mL SCF, 10 ng/mL Flt3L and 100 U/mL IL2 for 35 days. […]
as §1

XMEN CD34^+ HSPCs [6] = test: Targeted insertion (TI) of MAGT1 cDNA by ddPCR in gene-edited CD34+ HSPCs; format: cell-based, human; details: ddPCR 48-72 h post-EP, input pre-transplant
Excerpt: as §2, with “For all the graphs, data are shown as mean±standard deviation (SD); ANOVA one-way test and Tukey's post hoc multiple comparisons test, *p<0.05, *p<0.01, ***p<0.001, ****p<0.0001.” left out
as §1

53BP1 = target: T1, 53BP1 (Homo sapiens, UniProt Q12888); details: blocking 53BP1 tudor domain binding to H4K20me2; cited from earlier work
T1 construct: endogenous in cells
T1 sequence (Q12888 whole entry, the tested form may be a part): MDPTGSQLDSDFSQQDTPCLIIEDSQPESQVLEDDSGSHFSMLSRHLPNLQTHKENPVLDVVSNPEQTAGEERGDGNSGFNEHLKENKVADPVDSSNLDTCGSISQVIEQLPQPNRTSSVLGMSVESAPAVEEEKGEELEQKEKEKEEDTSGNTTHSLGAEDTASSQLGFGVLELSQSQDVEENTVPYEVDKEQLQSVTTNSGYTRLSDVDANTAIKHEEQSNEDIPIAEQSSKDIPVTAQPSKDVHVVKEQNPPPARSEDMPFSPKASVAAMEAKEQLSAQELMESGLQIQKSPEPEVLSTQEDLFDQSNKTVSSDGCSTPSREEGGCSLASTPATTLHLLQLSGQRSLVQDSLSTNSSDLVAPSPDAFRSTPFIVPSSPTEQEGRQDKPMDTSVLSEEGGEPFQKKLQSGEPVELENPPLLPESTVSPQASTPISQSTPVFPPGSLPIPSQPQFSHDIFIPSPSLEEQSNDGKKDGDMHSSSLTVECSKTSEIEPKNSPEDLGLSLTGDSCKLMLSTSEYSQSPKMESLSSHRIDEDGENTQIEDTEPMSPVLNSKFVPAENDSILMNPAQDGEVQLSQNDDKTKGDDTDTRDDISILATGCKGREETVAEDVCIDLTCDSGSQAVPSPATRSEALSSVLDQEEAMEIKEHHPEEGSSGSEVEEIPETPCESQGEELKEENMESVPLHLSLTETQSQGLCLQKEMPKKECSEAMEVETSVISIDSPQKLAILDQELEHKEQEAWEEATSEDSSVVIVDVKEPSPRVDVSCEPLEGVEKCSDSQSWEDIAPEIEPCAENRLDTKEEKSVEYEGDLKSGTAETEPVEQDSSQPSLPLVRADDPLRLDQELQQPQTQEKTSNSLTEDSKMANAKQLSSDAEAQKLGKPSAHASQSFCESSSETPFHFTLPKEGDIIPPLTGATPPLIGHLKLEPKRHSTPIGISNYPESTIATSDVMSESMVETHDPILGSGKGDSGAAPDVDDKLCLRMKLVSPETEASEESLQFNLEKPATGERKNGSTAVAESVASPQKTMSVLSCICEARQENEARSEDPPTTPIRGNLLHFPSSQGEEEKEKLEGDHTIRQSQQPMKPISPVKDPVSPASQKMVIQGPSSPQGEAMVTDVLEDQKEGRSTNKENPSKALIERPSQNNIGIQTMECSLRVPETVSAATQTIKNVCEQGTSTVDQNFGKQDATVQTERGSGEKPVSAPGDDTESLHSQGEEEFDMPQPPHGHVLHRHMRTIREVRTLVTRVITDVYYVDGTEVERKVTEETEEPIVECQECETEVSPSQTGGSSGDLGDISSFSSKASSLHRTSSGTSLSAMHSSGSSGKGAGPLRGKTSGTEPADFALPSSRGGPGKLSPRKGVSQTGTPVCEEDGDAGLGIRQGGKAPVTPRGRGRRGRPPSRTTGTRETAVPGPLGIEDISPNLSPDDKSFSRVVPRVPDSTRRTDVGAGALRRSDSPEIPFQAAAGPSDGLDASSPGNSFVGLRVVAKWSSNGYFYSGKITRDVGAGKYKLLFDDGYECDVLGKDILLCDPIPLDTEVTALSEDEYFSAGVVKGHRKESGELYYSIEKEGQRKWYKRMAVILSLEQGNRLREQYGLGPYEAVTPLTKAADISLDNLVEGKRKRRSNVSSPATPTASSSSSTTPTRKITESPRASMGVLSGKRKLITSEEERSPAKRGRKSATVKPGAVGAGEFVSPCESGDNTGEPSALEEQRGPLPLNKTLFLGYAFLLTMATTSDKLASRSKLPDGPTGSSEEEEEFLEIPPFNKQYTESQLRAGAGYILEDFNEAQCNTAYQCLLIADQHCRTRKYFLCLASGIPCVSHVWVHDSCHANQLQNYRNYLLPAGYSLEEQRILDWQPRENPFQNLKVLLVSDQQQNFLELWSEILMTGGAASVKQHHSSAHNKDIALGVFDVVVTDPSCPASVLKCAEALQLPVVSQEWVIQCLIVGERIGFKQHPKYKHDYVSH

CD34^+ HSPCs = test: CFSE proliferation assay; format: cell-based, human; details: CFSE stain day 1 post EP, flow cytometry day 6
Excerpt: (A) Optimization of cutting activity (% indels) of various forms of Cas9 mRNA and at increasing concentration. Commercial Cas9 mRNA (MaxCyte, Mx) is used as control. (B) Evaluation of the glycerol concentration in the EP mix on viability and cutting activity at day 2 post EP. (C) Representative dot plots showing the immunophenotype analysis of HSPCs by flow cytometry at day 2 post EP. (D) Hematopoietic potential evaluated by the CFU assay at day 2 post-EP; Number of CFU colonies were counted after 14 days. (E) Measure of the proliferation index after staining HD HSPCs at day 1 post EP with CFSE dye and analysis of the proliferation by flow cytometry at day 6 post EP.
The following day after EP, CD34^+ cells were stained with CellTrace™ CFSE kit per manufacturer's instructions (ThermoFisher Scientific) and analyzed by flow cytometry 5 days later. Determination of the proliferation index was done using FlowJo software.

i53 mRNA: pseudouridine-modified mRNA encoding i53, an inhibitor of 53BP1 (ubiquitin variant, SEQ ID NO:6)
levels of HDR-mediated TI with AAV donors or gene correction with ssODN donors (HSPCs [1]): above 60% | upregulation of interferon or other cytokines or cellular stress genes, transcriptional repression, toxicity or loss of viability (HSPCs [2]): not observed any significant upregulation | post-transplant TI [3]: 54.5±18.3% | engraftment of human CD45+ cells in the BM ([3]; week 16, NSGS mice, bone marrow): 11.03% | viability of GE CD34+ HSPCs (XMEN CD34^+ HSPCs [4]): decreased after gene editing, independently of i53 | NKG2D expression in in vitro differentiated NK cells ([5]; day 35 of culture): 26% | molecular TI rates in NK cells ([5]; day 35 of in vitro differentiation, ddPCR): 34% | AAV-MAGT1 TI rates (targeted insertion) (XMEN CD34^+ HSPCs [6]): 50.0±18.2%

i53 protein: ubiquitin variant (SEQ ID NO:2) of Canny et al. that binds the tandem tudor domain of 53BP1
increase of repair by HDR (53BP1): about 2 fold

B1: GSE CS-56 mRNA: mRNA encoding a human TP53 genetic suppressor element, a dominant negative deletion mutant of TP53 (nucleic acid)
chain: GGGUAAUACAAGCUUGCUUGUUCUUUUUGCAGAAGCUCAGAAUAAACGCUCAACUUUGGCAGCCACCAUGGAUUGUCCUGGGAGAGACCGGCGCACAGAGGAAGAGAAUCUCCGCAAGAAAGGGGAGCCUCACCACGAGCUGCCCCCAGGGAGCACUAAGCGAGCACUGCCCAACAACACCAGCUCCUCUCCCCAGCCAAAGAAGAAACCACUGGAUGGAGAAUAUUUCACCCUUCAGAUCCGUGGGCGUGAGCGCUUCGAGAUGUUCCGAGAGCUGAAUGAGGCCUUGGAACUCAAGGAUGCCCAGGCUGGGAAGGAGCCAGGGGGGAGCAGGGCUCACUCCAGCCACCUGAAGUAGUGAUAUCACUAGUGACUGACUAGGAUCUGGUUACCACUAAACCAGCCUCAAGAACACCCGAAUGGAGUCUCUAAGCUACAUAAUACCAACUUACACUUUACAAAAUGUUGUCCCCCAAAAUGUAGCCAUUCGUAUCUGCUCCUAAUAAAAAGAAAGUUUCUUCACAUUCUGCUAGCUCUAG
modifications: pseudouridine; (1)..(539) U=Pseudouridine
proliferative capacity (CD34^+ HSPCs): better preserved | upregulation of interferon or other cytokines or cellular stress genes, transcriptional repression, toxicity or loss of viability (HSPCs [2]): not observed any significant upregulation | post-transplant TI [3]: slightly improved | percentages of NKG2D-expressing CD8+ T cells ([3]; week 16 post-transplant, PB, spleen, thymus): slightly improved | viability of GE CD34+ HSPCs (XMEN CD34^+ HSPCs [4]): significantly increased | viability of GE CD34+ HSPCs (XMEN CD34^+ HSPCs [4]; listed as GSE-CS56 mRNA): rescue the cell viability | AAV-MAGT1 TI rates (targeted insertion) (XMEN CD34^+ HSPCs [6]): 62.3±18%
